Reference: ChEMBL document CHEMBL1201862, “PubChem BioAssay data set” (2004)
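Tested at 5 concentrations; 48 h exposure; 96-well plates; endpoints linearly interpolated, else capped at highest concentration. Abbreviation: GI50, concentration required for 50% inhibition of growth.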 Calls of active or inactive are those of the source. Cut-off read from the data, not from the text of the source: active = GI50 up to about 1.1 µM and inactive = higher.

Tests used:
Assay in all cases: DTP human tumour cell line panel, 48 h
[1] = test system: SR
[2] = test system: BT-549
[3] = test system: 786-0
[4] = test system: HOP-62
[5] = test system: Hs-578T
[6] = test system: NCI-H23
[7] = test system: OVCAR-3
[8] = test system: OVCAR-4
[9] = test system: ACHN
[10] = test system: SK-MEL-5
[11] = test system: UACC-257
[12] = test system: SNB-19
[13] = test system: TK-10
[14] = test system: HCT-15
[15] = test system: K562
[16] = test system: MDA-MB-231
[17] = test system: LOX IMVI
[18] = test system: SK-OV-3
[19] = test system: DU-145
[20] = test system: RPMI-8226

O=C(O)C1C2C=CC(O2)C1C(=O)NCc1ccccn1 (centres undefined)
GI50 [1]: > 100 µM (inactive) | GI50 [2]: > 100 µM (inactive) | GI50 [3]: > 100 µM (inactive) | GI50 [4]: > 100 µM (inactive) | GI50 [5]: > 100 µM (inactive) | GI50 [6]: > 100 µM (inactive) | GI50 [7]: > 100 µM (inactive) | GI50 [8]: > 100 µM (inactive) | GI50 [9]: > 100 µM (inactive) | GI50 [10]: > 100 µM (inactive) | GI50 [11]: > 100 µM (inactive) | GI50 [12]: > 100 µM (inactive) | GI50 [13]: > 100 µM (inactive) | GI50 [14]: > 100 µM | GI50 [15]: > 100 µM (inactive) | GI50 [16]: > 100 µM (inactive) | GI50 [17]: > 100 µM (inactive) | GI50 [18]: > 100 µM (inactive) | GI50 [19]: > 100 µM (inactive) | GI50 [20]: > 100 µM (inactive)

CN1C(=O)C23CCCCC2CC1(c1ccccc1)S3 (centres undefined)
GI50 [1]: 58.5 µM (inactive) | GI50 [2]: 99.3 µM (inactive) | GI50 [3]: > 100 µM (inactive) | GI50 [4]: > 100 µM (inactive) | GI50 [5]: 99.1 µM (inactive) | GI50 [6]: 66.8 µM (inactive) | GI50 [7]: 50.9 µM (inactive) | GI50 [8]: 34.2 µM (inactive) | GI50 [9]: > 100 µM (inactive) | GI50 [10]: 72.3 µM (inactive) | GI50 [11]: 18.3 µM (inactive) | GI50 [12]: > 100 µM (inactive) | GI50 [13]: 41.2 µM (inactive) | GI50 [14]: 80 µM | GI50 [15]: 71.1 µM (inactive) | GI50 [16]: 71.1 µM (inactive) | GI50 [17]: 79.8 µM (inactive) | GI50 [18]: > 100 µM (inactive) | GI50 [19]: > 100 µM (inactive) | GI50 [20]: 49.8 µM (inactive)

O=C(c1nsc(Cl)c1Cl)N1CCCCC1
GI50 [1]: > 100 µM (inactive) | GI50 [2]: > 100 µM (inactive) | GI50 [3]: > 100 µM (inactive) | GI50 [4]: > 100 µM (inactive) | GI50 [5]: > 100 µM (inactive) | GI50 [6]: > 100 µM (inactive) | GI50 [7]: > 100 µM (inactive) | GI50 [8]: > 100 µM (inactive) | GI50 [10]: > 100 µM (inactive) | GI50 [11]: > 100 µM (inactive) | GI50 [12]: 82.8 µM (inactive) | GI50 [13]: > 100 µM (inactive) | GI50 [14]: > 100 µM | GI50 [15]: > 100 µM (inactive) | GI50 [16]: > 100 µM (inactive) | GI50 [17]: > 100 µM (inactive) | GI50 [18]: > 100 µM (inactive) | GI50 [19]: > 100 µM (inactive) | GI50 [20]: > 100 µM (inactive)

CCOc1cc(-c2nc3ccccn3c2/N=C/c2cc([N+](=O)[O-])cc([N+](=O)[O-])c2O)ccc1O
GI50 [1]: > 100 µM (inactive) | GI50 [2]: > 100 µM (inactive) | GI50 [3]: > 100 µM (inactive) | GI50 [4]: > 100 µM (inactive) | GI50 [5]: > 100 µM (inactive) | GI50 [6]: > 100 µM (inactive) | GI50 [7]: > 100 µM (inactive) | GI50 [8]: > 100 µM (inactive) | GI50 [9]: > 100 µM (inactive) | GI50 [10]: > 100 µM (inactive) | GI50 [11]: > 100 µM (inactive) | GI50 [12]: > 100 µM (inactive) | GI50 [13]: > 100 µM (inactive) | GI50 [14]: > 100 µM | GI50 [15]: > 100 µM (inactive) | GI50 [16]: > 100 µM (inactive) | GI50 [17]: > 100 µM (inactive) | GI50 [18]: > 100 µM (inactive) | GI50 [19]: > 100 µM (inactive) | GI50 [20]: > 100 µM (inactive)

CN(C)CCOc1ccc(-c2c(Oc3ccc(Cl)cc3)c(=O)oc3ccccc23)cc1
GI50 [1]: 4.09 µM (inactive) | GI50 [2]: 15 µM (inactive) | GI50 [3]: 4.27 µM (inactive) | GI50 [4]: 21.9 µM (inactive) | GI50 [5]: 8.59 µM (inactive) | GI50 [6]: 14.5 µM (inactive) | GI50 [7]: 12.4 µM (inactive) | GI50 [8]: 9.68 µM (inactive) | GI50 [9]: 18.6 µM (inactive) | GI50 [10]: 2.01 µM (inactive) | GI50 [11]: 5.13 µM (inactive) | GI50 [12]: 16.9 µM (inactive) | GI50 [13]: 10.4 µM (inactive) | GI50 [14]: 6.95 µM | GI50 [15]: 3.84 µM (inactive) | GI50 [16]: 7.78 µM (inactive) | GI50 [17]: 6.98 µM (inactive) | GI50 [18]: 10.4 µM (inactive) | GI50 [19]: 10.5 µM (inactive) | GI50 [20]: 8.43 µM (inactive)

CC(=O)OC1C(COC(=O)c2ccccc2)OC(Nc2ncc(-c3ccc(Br)cc3)s2)C(OC(=O)c2ccccc2)C1OC(=O)c1ccccc1 (centres undefined)
GI50 [1]: > 100 µM (inactive) | GI50 [2]: > 100 µM (inactive) | GI50 [3]: 84.1 µM (inactive) | GI50 [4]: > 100 µM (inactive) | GI50 [5]: > 100 µM (inactive) | GI50 [6]: > 100 µM (inactive) | GI50 [7]: > 100 µM (inactive) | GI50 [8]: > 100 µM (inactive) | GI50 [9]: > 100 µM (inactive) | GI50 [10]: > 100 µM (inactive) | GI50 [11]: > 100 µM (inactive) | GI50 [12]: > 100 µM (inactive) | GI50 [13]: > 100 µM (inactive) | GI50 [14]: > 10 µM | GI50 [15]: > 100 µM (inactive) | GI50 [16]: > 100 µM (inactive) | GI50 [17]: > 100 µM (inactive) | GI50 [18]: > 100 µM (inactive) | GI50 [19]: > 100 µM (inactive) | GI50 [20]: > 100 µM (inactive)

CC(CC(=O)O)(CC(=O)O)c1ccccc1
GI50 [1]: > 100 µM (inactive) | GI50 [2]: > 100 µM (inactive) | GI50 [3]: > 100 µM (inactive) | GI50 [4]: > 100 µM (inactive) | GI50 [5]: > 100 µM (inactive) | GI50 [6]: > 100 µM (inactive) | GI50 [7]: > 100 µM (inactive) | GI50 [8]: > 100 µM (inactive) | GI50 [9]: > 100 µM (inactive) | GI50 [10]: > 100 µM (inactive) | GI50 [11]: > 100 µM (inactive) | GI50 [12]: > 100 µM (inactive) | GI50 [13]: > 100 µM (inactive) | GI50 [14]: > 100 µM | GI50 [15]: 50.2 µM (inactive) | GI50 [16]: > 100 µM (inactive) | GI50 [17]: > 100 µM (inactive) | GI50 [18]: > 100 µM (inactive) | GI50 [19]: > 100 µM (inactive) | GI50 [20]: > 100 µM (inactive)
